Test system: Mycobacterium tuberculosis (Mtb) H37Rv
Assay: Mtb luminescence assay
Type: cell-based
Conditions: for relative Mtb signal / reduction in Mtb signal (in words): 20 μM

| SMILES | relative Mtb signal | reduction in Mtb signal (in words) | also measured |
| --- | --- | --- | --- |
| CS(=O)(=O)CCNCc1ccc(-c2ccc3ncnc(Nc4ccc(OCc5cccc(F)c5)c(Cl)c4)c3c2)o1 [Lapatinib] | below 10% |  |  |
| C#Cc1cccc(Nc2ncnc3cc(OCCOC)c(OCCOC)cc23)c1 [Erlotinib] |  |  | Mtb signal at plateau (plateau of effect): approximately 70% |
| COc1cc2nccc(Nc3ccc(OCc4cccc(F)c4)c(Cl)c3)c2cc1OC [Compound 28] | 10% |  |  |
| COc1cc2nccc(Nc3ccc(NC(C)=O)cc3)c2cc1OC [Compound 31] |  |  | effect on Mtb (in words) (across tested concentrations up to 20 μM): no effect |
| COc1ccc2nccc(Nc3ccc(NC(=O)c4ccc(C)cc4)c(O)c3)c2c1 [Compound 32] |  | no reduction |  |
| COc1ccc2c(Nc3ccc(NC(=O)c4ccc(C)cc4)c(O)c3)ccnc2c1 [Compound 33] |  | no reduction |  |
